{"source": "patent US9855232B2", "about": "“Crystalline forms of bimatoprost acid, methods for preparation, and methods for use thereof” (Allergan, Inc., priority 2012, dated 2018)", "type_in_all_cases": "physicochemical", "key": {"[1]": {"experiment": "Thermodynamic equilibrium solubility in anisole", "procedure": "(§1) Anisole was selected as solvent based on good stability and measurable solubility of bimatoprost acid polymorphs in the studied temperature range. […] Another solvent, nitromethane, was selected to detect the solubility of bimatoprost acid at 9 and 22° C. […] At 22° C., both forms converted to oils where no comparison between the two polymorphs could be made."}, "[2]": {"experiment": "Solubility in nitromethane", "procedure": "as §1"}, "[3]": {"experiment": "Isothermal competitive co-slurries of polymorph I and II", "settings": "1:1 ratio co-slurry at 5, 20 and 35° C.", "procedure": "The differences in free energy between the polymorphs were measured as a function of temperature in order to determine the transition temperature and relative stability versus temperature."}, "[4]": {"experiment": "Vapor sorption analysis (VSA)", "settings": "for relative humidity at which the monohydrate (hydrated form) forms: first adsorption", "procedure": "The crystalline monohydrate form (designated polymorph III) was discovered upon vapor sorption analysis (VSA) of both polymorph I and polymorph II. […] The conversion of polymorph I to the monohydrate form was confirmed by XRPD. […] The 2nd adsorption cycle of polymorph II reconfirms formation of the monohydrate again at RH˜75% (FIG. 7). […] The thermal analysis (MDSC) of the monohydrate form indicates a melting endotherm onset (Tonset) at 53.9° C. and a fusion enthalpy (ΔHf) of 72.4 J/g for the monohydrate form (see FIG. 8)."}}, "note": "Read-outs that look alike come from different tables or passages of the source.", "data": [{"smiles": "O=C(O)CCCC=CCC1C(O)CC(O)C1C=CC(O)CCc1ccccc1", "note": "(centres unmarked) [bimatoprost acid, 7-[3,5-Dihydroxy-2-(3-hydroxy-5-phenyl-pent-1-enyl)-cyclopentyl]-hept-5-enoic acid]", "values": [{"measurement": "physical state in solubility study", "setting": "[1]; temperatures above 40° C.", "result": "transforms to an oil"}]}, {"smiles": "O=C(O)CCCC=CCC1C(O)CC(O)C1C=CC(O)CCc1ccccc1", "note": "(centres unmarked) [polymorph I, 7-[3,5-Dihydroxy-2-(3-hydroxy-5-phenyl-pent-1-enyl)-cyclopentyl]-hept-5-enoic acid]", "values": [{"measurement": "solubility", "setting": "[2]; 9 °C, organic solvent or mixture, thermodynamic from solid, read-out: solubility", "result": "4100 ± 300", "unit": "µg/mL"}, {"measurement": "polymorph conversion / relative stability", "setting": "[3]", "result": "converts to polymorph II at all three temperatures"}, {"measurement": "relative humidity at which the monohydrate (hydrated form) forms", "setting": "[4]; 25° C.", "result": "~75", "unit": "% RH"}, {"measurement": "water absorbed", "setting": "[4]; RH~75%, 25° C.", "result": 4.42, "unit": "w/w %"}]}, {"smiles": "O=C(O)CCCC=CCC1C(O)CC(O)C1C=CC(O)CCc1ccccc1", "note": "(centres unmarked) [polymorph II, 7-[3,5-Dihydroxy-2-(3-hydroxy-5-phenyl-pent-1-enyl)-cyclopentyl]-hept-5-enoic acid]", "values": [{"measurement": "solubility", "setting": "[2]; 9° C.", "result": "3300 ± 200", "unit": "µg/mL"}, {"measurement": "thermodynamic equilibrium solubility (comparison of polymorphs)", "setting": "[1]; 6° C. and 25° C.", "result": "lower solubility"}, {"measurement": "polymorph conversion / relative stability", "setting": "[3]", "result": "more stable form over the temperature range of 5-35 °C"}, {"measurement": "relative humidity at which the monohydrate forms", "setting": "[4]; 2nd adsorption cycle", "result": "~75", "unit": "%"}, {"measurement": "relative humidity at which the monohydrate (hydrated form) forms", "setting": "[4]; 25° C.", "result": "above 85 % RH"}]}, {"smiles": "O=C(O)CCCC=CCC1C(O)CC(O)C1C=CC(O)CCc1ccccc1", "note": "(centres unmarked) [polymorph III, 7-[3,5-Dihydroxy-2-(3-hydroxy-5-phenyl-pent-1-enyl)-cyclopentyl]-hept-5-enoic acid]", "values": [{"measurement": "conversion upon drying", "setting": "[4]; drying in vapor sorption analyzer at 25° C.", "result": "converted beck to the initial polymorph 1"}]}]}
